Settings: Liquid

CCOC(C)=O [ethyl acetate]
mass density [kg/m3]
Settings	318.15 K	323.15 K	328.15 K	333.15 K	338.15 K	343.15 K
100 kPa	–	862.7	856.4	850.4	844	837.5
1000 kPa	–	864	857.8	851.7	845.4	839.1
2000 kPa	–	865.1	859.2	853	846.8	840.6
3000 kPa	–	866.2	860.5	854.4	848.2	842
3800 kPa	–	867.1	861.5	855.4	849.3	843.2
5000 kPa	–	868.6	862.5	856.8	850.8	844.5
10000 kPa	–	874.2	868.4	862.9	857.1	851.2
15000 kPa	–	879.4	873.9	868.5	863	–
20000 kPa	–	884.3	879	873.8	868.5	–
25000 kPa	894.5	889.2	884.1	879	873.9	–
30000 kPa	900.1	895	890.1	885.2	880.3	–
35000 kPa	905.9	900.9	896.2	891.4	886.7	–
